According to US20240262832A1, “SMALL MOLECULE MODULATORS OF GLUCOCEREBROSIDASE ACTIVITY AND USES THEREOF” (Vanqua Bio, Inc., priority 2021, published 2024):

Target: T1, GCase (Homo sapiens, UniProt P04062)
T1 construct: endogenous in cells; host or cells: HeLa cells
T1 sequence (P04062 40-536): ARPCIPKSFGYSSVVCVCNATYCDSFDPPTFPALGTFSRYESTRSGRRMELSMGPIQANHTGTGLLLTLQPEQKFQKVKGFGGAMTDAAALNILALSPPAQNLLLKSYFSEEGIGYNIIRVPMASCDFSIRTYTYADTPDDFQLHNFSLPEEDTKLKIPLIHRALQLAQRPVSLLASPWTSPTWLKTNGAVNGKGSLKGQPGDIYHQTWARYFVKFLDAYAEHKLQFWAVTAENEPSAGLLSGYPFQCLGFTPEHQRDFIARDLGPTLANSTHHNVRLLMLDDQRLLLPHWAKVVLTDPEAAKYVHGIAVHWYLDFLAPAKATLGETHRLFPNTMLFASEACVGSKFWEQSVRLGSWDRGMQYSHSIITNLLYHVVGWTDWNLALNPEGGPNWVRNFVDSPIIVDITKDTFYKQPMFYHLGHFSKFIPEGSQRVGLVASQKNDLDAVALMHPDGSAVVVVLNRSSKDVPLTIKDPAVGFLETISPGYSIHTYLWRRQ
Assay: activation of GCase in a live cell PFB assay in HELA cells
Type: cell-based

Row | EC50 [µM] | SMILES
1 | 10 to 50 | Cc1ccccc1OCC1CCCN(C(=O)c2cnn3c(-c4ccccc4)ccc(F)c23)C1 (stereo not drawn) [Compound 292, (4-Fluoro-7-phenylpyrazolo[1,5-a]pyridin-3-yl)(3-((o-tolyloxy)methyl)piperidin-1-yl)methanone]
2 | 10 to 50 | Cc1ccccc1OCC1CCCN(C(=O)c2cnc3c(cc(-c4ccccc4)n3C)n2)C1 (stereo not drawn) [Compound 52, (5-methyl-6-phenyl-5H-pyrrolo[2,3-b]pyrazin-2-yl)(3-((o-tolyloxy)methyl)piperidin-1-yl)methanone]
3 | 50 to 100 | CC(=O)c1ccc(OCC(=O)N2CCC(OCc3ccccc3)CC2)cc1 [Compound 478]
4 | < 10 | CC1CCC(COc2cccnc2C(F)(F)F)CN1c1cncc(-c2nncs2)n1 (stereo not drawn) [Compound 232, 2-[2-Methyl-5-({[2-(trifluoromethyl)pyridin-3-yl]oxy}methyl)piperidin-1-yl]-6-(1,3,4-thiadiazol-2-yl)pyrazine]
5 | 10 to 50 | Cc1ccccc1OCC1CCCN(C(=O)c2c(-c3ccccc3)n(C)c3nccnc23)C1 (stereo not drawn) [Compound 81, (5-Methyl-6-phenyl-5H-pyrrolo[2,3-b]pyrazin-7-yl)(3-((o-tolyloxy)methyl)piperidin-1-yl)methanone]
6 | < 10 | C[C@@H]1CC[C@H](COc2cnccc2C(F)(F)F)CN1c1cnc2cnn(CC(F)F)c2n1 [Compound 274, 1-(2,2-Difluoroethyl)-6-((2R,5S)-2-methyl-5-(((4-(trifluoromethyl)pyridin-3-yl)oxy)methyl)piperidin-1-yl)-1H-pyrazolo[3,4-b]pyrazine]
7 | < 10 | C[C@@H](Oc1cccnc1C(F)(F)F)[C@H]1CCCN(c2cncc(-c3nncs3)n2)C1 [Compound 45b, 2-(6-((S)-3-((R)-1-((2-(trifluoromethyl)pyridin-3-yl)oxy)ethyl)piperidin-1-yl)pyrazin-2-yl)-1,3,4-thiadiazole]
8 | 10 to 50 | O=C(c1ccc2cc[nH]c2c1)N1CCC(Oc2ccc(C(F)(F)F)cn2)CC1 [Compound 333, (1H-Indol-6-yl)(4-((5-(trifluoromethyl)pyridin-2-yl)oxy)piperidin-1-yl)methanone]
9 | 10 to 50 | C[C@H](Oc1ccccc1C(F)(F)F)[C@@H]1CCCN(c2cnc3cnn(CC(F)F)c3n2)C1 [Compound 266b, 1-(2,2-difluoroethyl)-6-((R)-3-((S)-1-(2-(trifluoromethyl)phenoxy)ethyl)piperidin-1-yl)-1H-pyrazolo[3,4-b]pyrazine]
10 | 10 to 50 | CCc1ncc(C(=O)N2CCC(COc3ccc4c(c3)CCC4)CC2)cn1 [Compound 426]
11 | > 100 | CC(=O)N1CCC(c2cc3nc(C(=O)N4C[C@@H]5[C@@H](COc6cccc(C(F)(F)F)n6)[C@@H]5C4)cnc3n2C)CC1 [Compound 225, 1-(4-(5-Methyl-2-((1R,5S,6r)-6-(((6-(trifluoromethyl)pyridin-2-yl)oxy)methyl)-3-azabicyclo[3.1.0]hexane-3-carbonyl)-5H-pyrrolo[2,3-b]pyrazin-6-yl)piperidin-1-yl)ethan-1-one]
12 | 10 to 50 | CC(C)Sc1ccc(CC(=O)N2CCC(Oc3ncccc3C#N)CC2)cc1 [Compound 369]
13 | 10 to 50 | COCCNc1nc2cc(C(=O)N3CCC(O)(CO)CC3)ccc2n1C [Compound 486]
14 | 50 to 100 | O=C(c1ccc(-c2nnc[nH]2)cc1)N1CCC(OCc2ccccc2)CC1 [Compound 468]
15 | > 100 | O=C(c1cc(CC2CC2)on1)N1CCCC(COc2ccccc2)C1 (stereo not drawn) [Compound 188]
16 | 10 to 50 | Cc1ccccc1OCC1CCCN(C(=O)c2cn(C)c3ccn(-c4ccccc4)c(=O)c23)C1 (stereo not drawn) [Compound 38, 1-Methyl-5-phenyl-3-(3-((o-tolyloxy)methyl)piperidine-1-carbonyl)-1,5-dihydro-4H-pyrrolo[3,2-c]pyridin-4-one]
17 | 10 to 50 | C[C@@H]1CC[C@H](COc2ncccc2C(F)(F)F)CN1c1cnc2cnn(CC(F)F)c2n1 [Compound 277, 1-(2,2-Difluoroethyl)-6-((2R,5S)-2-methyl-5-(((3-(trifluoromethyl)pyridin-2-yl)oxy)methyl)piperidin-1-yl)-1H-pyrazolo[3,4-b]pyrazine]
18 | 10 to 50 | FC(F)Cn1ncc2ncc(N3CCC(Oc4cccc(C(F)(F)F)n4)CC3)nc21 [Compound 309, 1-(2,2-Difluoroethyl)-6-(4-((6-(trifluoromethyl)pyridin-2-yl)oxy)piperidin-1-yl)-1H-pyrazolo[3,4-b]pyrazine]
19 | 10 to 50 | O=C(Cc1csc(-c2ccccc2)n1)N1CCC(Oc2ccnc(C(F)(F)F)c2)CC1 [Compound 399, 2-(2-Phenyl-1,3-thiazol-4-yl)-1-(4-{[2-(trifluoromethyl)pyridin-4-yl]oxy}piperidin-1-yl)ethan-1-one]
20 | < 10 | C[C@@H]1C[C@@H](COc2cccnc2C(F)(F)F)CN(c2cnc3cnn(CC(F)F)c3n2)C1 [Compound 95, 1-(2,2-Difluoroethyl)-6-((3R,5R)-3-methyl-5-(((2-(trifluoromethyl)pyridin-3-yl)oxy)methyl)piperidin-1-yl)-1H-pyrazolo[3,4-b]pyrazine]

Row | EC50 [µM] | SMILES
21 | 10 to 50 | N#Cc1cccnc1OC1CCN(C(=O)C23CC4CC(CC(C4)C2)C3)CC1 [Compound 375]
22 | < 10 | FC(F)Cn1ncc2ncc(N3CCC(OC4CN(c5cccnc5C(F)(F)F)C4)CC3)nc21 [Compound 329, 1-(2,2-Difluoroethyl)-6-(4-((1-(2-(trifluoromethyl)pyridin-3-yl)azetidin-3-yl)oxy)piperidin-1-yl)-1H-pyrazolo[3,4-b]pyrazine]
23 | 10 to 50 | CN1CCC(COc2cccc(-c3cnc4ccccc4n3)c2)CC1 [Compound 428]
24 | 10 to 50 | Cc1ccccc1OCC1CCCN(C(=O)c2cnc3cc(-c4ccccc4)n(C)c3n2)C1 (stereo not drawn) [Compound 49, (5-methyl-6-phenyl-5H-pyrrolo[2,3-b]pyrazin-3-yl)(3-((o-tolyloxy)methyl)piperidin-1-yl)methanone]
25 | > 100 | COc1ccc(OCC2CCN(Cc3cc(C)no3)CC2)cc1 [Compound 425]
26 | > 100 | NCCn1cc(C(=O)N2CCC(COc3ccc4c(c3)CCC4)CC2)nn1 [Compound 440]
27 | < 10 | FC(F)Cn1ncc2ncc(N3C[C@@H]4[C@@H](COc5cccnc5C(F)(F)F)[C@@H]4C3)nc21 [Compound 1, (1R,5S,6S)-3-[1-(2,2-difluoroethyl)-1H-pyrazolo[3,4-b]pyrazin-6-yl]-6-({[2-(trifluoromethyl)pyridin-3-yl]oxy}methyl)-3-azabicyclo[3.1.0]hexane]
28 | > 100 | C[C@@H]1CC[C@H](COc2ccc(C(F)(F)F)cn2)CN1c1cnc2cnn(CC(F)F)c2n1 [Compound 275, 1-(2,2-Difluoroethyl)-6-((2R,5S)-2-methyl-5-(((5-(trifluoromethyl)pyridin-2-yl)oxy)methyl)piperidin-1-yl)-1H-pyrazolo[3,4-b]pyrazine]
29 | 10 to 50 | FC(F)Cn1ncc2ncc(N3C[C@@H]4[C@@H](COc5cccc(C(F)(F)F)n5)[C@@H]4C3)nc21 [Compound 36, (1R,5S,6S)-3-[1-(2,2-Difluoroethyl)-1H-pyrazolo[3,4-b]pyrazin-6-yl]-6-({[6-(trifluoromethyl)pyridin-2-yl]oxy}methyl)-3-azabicyclo[3.1.0]hexane]
30 | 10 to 50 | FC(F)Cn1ncc2ncc(N3CCCC(F)(COc4cccnc4C(F)(F)F)C3)nc21 (stereo not drawn) [Compound 35, 3-({1-[1-(2,2-Difluoroethyl)-1H-pyrazolo[3,4-b]pyrazin-6-yl]-3-fluoropiperidin-3-yl}methoxy)-2-(trifluoromethyl)pyridine]
31 | 10 to 50 | CCc1cnc(C)nc1N1CCC(COc2ccc(OC)cc2)CC1 [Compound 475]
32 | 10 to 50 | Cc1ccc(-c2nc(N3CCC(CO)CC3)ncc2-c2ccc(CO)cc2)cc1 [Compound 485]
33 | > 100 | Cn1c(-c2ccc(F)cc2)nc2nc(C(=O)N3C[C@@H]4[C@@H](COc5cccnc5C(F)(F)F)[C@@H]4C3)cnc21 [Compound 223]
34 | 50 to 100 | CC(CC1CCCN(c2cnc3cnn(CC(F)F)c3n2)C1)c1cccnc1C(F)(F)F (stereo not drawn) [Compound 108, 1-(2,2-Difluoroethyl)-6-(3-(2-(2-(trifluoromethyl)pyridin-3-yl)propyl)piperidin-1-yl)-1H-pyrazolo[3,4-b]pyrazine]
35 | > 100 | Cc1ccccc1OCC1CCCN(C(=O)[C@@H]2CCc3nccc(=O)n32)C1 (stereo partly drawn) [Compound 280, (6S)-6-(3-((o-Tolyloxy)methyl)piperidine-1-carbonyl)-7,8-dihydropyrrolo[1,2-a]pyrimidin-4(6H)-one]
36 | 10 to 50 | Cn1c(-c2ccccc2)c(C(=O)N2CCCC(COc3ccccc3OC(F)(F)F)C2)c2nccnc21 (stereo not drawn) [Compound 236, (5-Methyl-6-phenyl-5H-pyrrolo[2,3-b]pyrazin-7-yl)(3-((2-(trifluoromethoxy)phenoxy)methyl)piperidin-1-yl)methanone]
37 | < 10 | O=C(N1CCC(COc2cccc(C(F)(F)F)n2)C1)C1(c2ccccc2)CCOCC1 (stereo not drawn) [Compound 6]
38 | 10 to 50 | COC1(C(=O)N2CCCC(COc3ccccc3)C2)CCCCCCC1 (stereo not drawn) [Compound 176]
39 | 50 to 100 | COc1ccc(OCC2CCN(c3nncc(C)c3C)CC2)cc1 [Compound 430]
